≈ marks a conversion by molar mass, not a printed value. Values belong to the compound of their own block, whether it stands above or below them.
Legend:
Experiment in all cases: In vitro MIC, 2010 surveillance isolates
[1] = system: A. baumanii; assay type: cell-based
[2] = system: Acinetobacter spp; assay type: cell-based
[3] = system: E. cloacae CeftazS; assay type: cell-based
[4] = system: Enterobacter spp; assay type: cell-based
[5] = system: K. pneumoniae ESBL−; assay type: cell-based, Klebsiella pneumoniae
[6] = system: E. coli ESBL+; assay type: cell-based, Escherichia coli
[7] = system: E. cloacae CeftazR; assay type: cell-based
[8] = system: K. oxytoca; assay type: cell-based; design: MIC90: unit: µg/mL
[9] = system: K. pneumoniae ESBL+; assay type: cell-based, Klebsiella pneumoniae
[10] = system: E. coli ESBL−; assay type: cell-based, Escherichia coli

- MIC90 ([1]; Asia/Pac, N=275): > 32 µg/mL
- MIC90 ([1]; Europe, N=145): > 32 µg/mL
- MIC90 ([1]; L. Amer, N=275): > 32 µg/mL
- MIC90 ([1]; N America, N=154): > 32 µg/mL
- MIC90 ([2]; Europe, N=43): > 32 µg/mL
- MIC90 ([2]; N America, N=42): 8 µg/mL (≈ 13.7 µM)
- MIC90 ([3]; Asia/Pac, N=100): 2 µg/mL (≈ 3.42 µM)
- MIC90 ([3]; Europe, N=183): 2 µg/mL (≈ 3.42 µM)
- MIC90 ([3]; L. Amer, N=57): 16 µg/mL (≈ 27.3 µM)
- MIC90 ([3]; N America, N=210): 2 µg/mL (≈ 3.42 µM)
- MIC90 ([4]; Asia/Pac, N=52): 2 µg/mL (≈ 3.42 µM)
- MIC90 ([4]; Europe, N=82): 4 µg/mL (≈ 6.83 µM)
- MIC90 ([4]; L. Amer, N=42): 4 µg/mL (≈ 6.83 µM)
- MIC90 ([4]; N America, N=101): 2 µg/mL (≈ 3.42 µM)
- MIC90 ([5]; Asia/Pac, N=189): 2 µg/mL (≈ 3.42 µM)
- MIC90 ([5]; Europe, N=361): 2 µg/mL (≈ 3.42 µM)
- MIC90 ([5]; L. Amer, N=160): 2 µg/mL (≈ 3.42 µM)
- MIC90 ([5]; N America, N=671): 2 µg/mL (≈ 3.42 µM)
- MIC90 ([6]; Asia/Pac, N=219): 8 µg/mL (≈ 13.7 µM)
- MIC90 ([6]; Europe, N=274): 8 µg/mL (≈ 13.7 µM)
- MIC90 ([6]; L. Amer, N=168): 8 µg/mL (≈ 13.7 µM)
- MIC90 ([6]; N America, N=134): 8 µg/mL (≈ 13.7 µM)
- MIC90 ([7]; Asia/Pac, N=63): 16 µg/mL (≈ 27.3 µM)
- MIC90 ([7]; Europe, N=72): 8 µg/mL (≈ 13.7 µM)
- MIC90 ([7]; L. Amer, N=42): 16 µg/mL (≈ 27.3 µM)
- MIC90 ([7]; N America, N=77): 4 µg/mL (≈ 6.83 µM)
- MIC90 ([8]; Asia/Pac, N=17): 2 µg/mL (≈ 3.42 µM)
- MIC90 ([8]; Europe, N=158): 2 µg/mL (≈ 3.42 µM)
- MIC90 ([8]; L. Amer, N=25): 32 µg/mL (≈ 54.6 µM)
- MIC90 ([8]; N America, N=177): 2 µg/mL (≈ 3.42 µM)
- MIC90 ([9]; Asia/Pac, N=124): > 32 µg/mL
- MIC90 ([9]; Europe, N=151): 32 µg/mL (≈ 54.6 µM)
- MIC90 ([9]; L. Amer, N=209): > 32 µg/mL
- MIC90 ([9]; N America, N=108): 32 µg/mL (≈ 54.6 µM)
- MIC90 ([10]; Asia/Pac, N=282): 4 µg/mL (≈ 6.83 µM)
- MIC90 ([10]; Europe, N=1533): 4 µg/mL (≈ 6.83 µM)
- MIC90 ([10]; L. Amer, N=389): 4 µg/mL (≈ 6.83 µM)
- MIC90 ([10]; N America, N=1172): 4 µg/mL (≈ 6.83 µM)
Compound: NCC[C@H](O)C(=O)N[C@@H]1C[C@H](N)[C@@H](O[C@H]2O[C@H](CN)[C@@H](O)[C@H](O)[C@H]2O)[C@H](O)[C@H]1O[C@H]1O[C@H](CO)[C@@H](O)[C@H](N)[C@H]1O [Amikacin]
- % R (resistance) ([1]; Asia/Pac, Eucast breakpoints): 74.9%
- % R (resistance) ([1]; Europe, Eucast breakpoints): 58.6%
- % R (resistance) ([1]; L. Amer, CLSI breakpoints): 57.5%
- % R (resistance) ([1]; N America, CLSI breakpoints): 42.9%
- % R (resistance) ([2]; Asia/Pac, Eucast breakpoints): 22.2%
- % R (resistance) ([2]; Europe, Eucast breakpoints): 39.5%
- % R (resistance) ([2]; L. Amer, CLSI breakpoints): 22.2%
- % R (resistance) ([2]; N America, CLSI breakpoints): 9.5%
- % R (resistance) ([3]; Asia/Pac, Eucast breakpoints): 1%
- % R (resistance) ([3]; Europe, Eucast breakpoints): 1.1%
- % R (resistance) ([3]; L. Amer, CLSI breakpoints): 0%
- % R (resistance) ([3]; N America, CLSI breakpoints): 0%
- % R (resistance) ([4]; Asia/Pac, Eucast breakpoints): 3.8%
- % R (resistance) ([4]; Europe, Eucast breakpoints): 0%
- % R (resistance) ([4]; L. Amer, CLSI breakpoints): 0%
- % R (resistance) ([4]; N America, CLSI breakpoints): 1%
- % R (resistance) ([5]; Asia/Pac, Eucast breakpoints): 0.5%
- % R (resistance) ([5]; Europe, Eucast breakpoints): 0.3%
- % R (resistance) ([5]; L. Amer, CLSI breakpoints): 0%
- % R (resistance) ([5]; N America, CLSI breakpoints): 0%
- % R (resistance) ([6]; Asia/Pac, Eucast breakpoints): 8.2%
- % R (resistance) ([6]; Europe, Eucast breakpoints): 2.2%
- % R (resistance) ([6]; L. Amer, CLSI breakpoints): 1.2%
- % R (resistance) ([6]; N America, CLSI breakpoints): 0.7%
- % R (resistance) ([7]; Asia/Pac, Eucast breakpoints): 9.5%
- % R (resistance) ([7]; Europe, Eucast breakpoints): 1.4%
- % R (resistance) ([7]; L. Amer, CLSI breakpoints): 7.1%
- % R (resistance) ([7]; N America, CLSI breakpoints): 0%
- % R (resistance) ([8]; Asia/Pac, Eucast breakpoints): 0%
- % R (resistance) ([8]; Europe, Eucast breakpoints): 0%
- % R (resistance) ([8]; L. Amer, CLSI breakpoints): 8%
- % R (resistance) ([8]; N America, CLSI breakpoints): 0%
- % R (resistance) ([9]; Asia/Pac, Eucast breakpoints): 23.4%
- % R (resistance) ([9]; Europe, Eucast breakpoints): 15.9%
- % R (resistance) ([9]; L. Amer, CLSI breakpoints): 14.8%
- % R (resistance) ([9]; N America, CLSI breakpoints): 2.8%
- % R (resistance) ([10]; Asia/Pac, Eucast breakpoints): 0.4%
- % R (resistance) ([10]; Europe, Eucast breakpoints): 0.3%
- % R (resistance) ([10]; L. Amer, CLSI breakpoints): 0%
- % R (resistance) ([10]; N America, CLSI breakpoints): 0%

- MIC90 ([1]; Asia/Pac, N=275): > 16 µg/mL
- MIC90 ([1]; Europe, N=145): > 16 µg/mL
- MIC90 ([1]; L. Amer, N=275): > 16 µg/mL
- MIC90 ([1]; N America, N=154): > 16 µg/mL
- MIC90 ([2]; Europe, N=43): > 16 µg/mL
- MIC90 ([2]; N America, N=42): > 16 µg/mL
- MIC90 ([3]; Asia/Pac, N=100): ≤ 0.12 µg/mL
- MIC90 ([3]; Europe, N=183): 0.25 µg/mL (≈ 0.52 µM)
- MIC90 ([3]; L. Amer, N=57): > 16 µg/mL
- MIC90 ([3]; N America, N=210): ≤ 0.12 µg/mL
- MIC90 ([4]; Asia/Pac, N=52): 1 µg/mL (≈ 2.08 µM)
- MIC90 ([4]; Europe, N=82): 1 µg/mL (≈ 2.08 µM)
- MIC90 ([4]; L. Amer, N=42): > 16 µg/mL
- MIC90 ([4]; N America, N=101): 0.5 µg/mL (≈ 1.04 µM)
- MIC90 ([5]; Asia/Pac, N=189): ≤ 0.12 µg/mL
- MIC90 ([5]; Europe, N=361): ≤ 0.12 µg/mL
- MIC90 ([5]; L. Amer, N=160): ≤ 0.12 µg/mL
- MIC90 ([5]; N America, N=671): ≤ 0.12 µg/mL
- MIC90 ([6]; Asia/Pac, N=219): > 16 µg/mL
- MIC90 ([6]; Europe, N=274): > 16 µg/mL
- MIC90 ([6]; L. Amer, N=168): > 16 µg/mL
- MIC90 ([6]; N America, N=134): > 16 µg/mL
- MIC90 ([7]; Asia/Pac, N=63): > 16 µg/mL
- MIC90 ([7]; Europe, N=72): > 16 µg/mL
- MIC90 ([7]; L. Amer, N=42): > 16 µg/mL
- MIC90 ([7]; N America, N=77): 16 µg/mL (≈ 33.3 µM)
- MIC90 ([8]; Asia/Pac, N=17): > 16 µg/mL
- MIC90 ([8]; Europe, N=158): 1 µg/mL (≈ 2.08 µM)
- MIC90 ([8]; L. Amer, N=25): >16 (16)
- MIC90 ([8]; N America, N=177): 0.25 µg/mL (≈ 0.52 µM)
- MIC90 ([9]; Asia/Pac, N=124): > 16 µg/mL
- MIC90 ([9]; Europe, N=151): > 16 µg/mL
- MIC90 ([9]; L. Amer, N=209): > 16 µg/mL
- MIC90 ([9]; N America, N=108): > 16 µg/mL
- MIC90 ([10]; Asia/Pac, N=282): 1 µg/mL (≈ 2.08 µM)
- MIC90 ([10]; Europe, N=1533): ≤ 0.12 µg/mL
- MIC90 ([10]; L. Amer, N=389): ≤ 0.12 µg/mL
- MIC90 ([10]; N America, N=1172): ≤ 0.12 µg/mL
Compound: CO/N=C(\C(=O)N[C@@H]1C(=O)N2C(C(=O)[O-])=C(C[N+]3(C)CCCC3)CS[C@H]12)c1csc(N)n1 [Cefepime]
- % R (resistance) ([1]; L. Amer, CLSI breakpoints): 78.9%
- % R (resistance) ([1]; N America, CLSI breakpoints): 61.7%
- % R (resistance) ([2]; L. Amer, CLSI breakpoints): 55.6%
- % R (resistance) ([2]; N America, CLSI breakpoints): 16.7%
- % R (resistance) ([3]; Asia/Pac, Eucast breakpoints): 2%
- % R (resistance) ([3]; Europe, Eucast breakpoints): 1.1%
- % R (resistance) ([3]; L. Amer, CLSI breakpoints): 10.5%
- % R (resistance) ([3]; N America, CLSI breakpoints): 0%
- % R (resistance) ([4]; Asia/Pac, Eucast breakpoints): 5.8%
- % R (resistance) ([4]; Europe, Eucast breakpoints): 2.4%
- % R (resistance) ([4]; L. Amer, CLSI breakpoints): 14.3%
- % R (resistance) ([4]; N America, CLSI breakpoints): 1%
- % R (resistance) ([5]; Asia/Pac, Eucast breakpoints): 0%
- % R (resistance) ([5]; Europe, Eucast breakpoints): 0%
- % R (resistance) ([5]; L. Amer, CLSI breakpoints): 0%
- % R (resistance) ([5]; N America, CLSI breakpoints): 0%
- % R (resistance) ([6]; Asia/Pac, Eucast breakpoints): 73.5%
- % R (resistance) ([6]; Europe, Eucast breakpoints): 69%
- % R (resistance) ([6]; L. Amer, CLSI breakpoints): 47%
- % R (resistance) ([6]; N America, CLSI breakpoints): 38.8%
- % R (resistance) ([7]; Asia/Pac, Eucast breakpoints): 38.1%
- % R (resistance) ([7]; Europe, Eucast breakpoints): 25%
- % R (resistance) ([7]; L. Amer, CLSI breakpoints): 26.2%
- % R (resistance) ([7]; N America, CLSI breakpoints): 6.5%
- % R (resistance) ([8]; Asia/Pac, Eucast breakpoints): 23.5%
- % R (resistance) ([8]; Europe, Eucast breakpoints): 4.4%
- % R (resistance) ([8]; N America, CLSI breakpoints): 0%
- % R (resistance) ([9]; Asia/Pac, Eucast breakpoints): 65.3%
- % R (resistance) ([9]; Europe, Eucast breakpoints): 76.8%
- % R (resistance) ([9]; L. Amer, CLSI breakpoints): 69.4%
- % R (resistance) ([9]; N America, CLSI breakpoints): 43.5%
- % R (resistance) ([10]; Asia/Pac, Eucast breakpoints): 0%
- % R (resistance) ([10]; Europe, Eucast breakpoints): 0.1%
- % R (resistance) ([10]; L. Amer, CLSI breakpoints): 0%
- % R (resistance) ([10]; N America, CLSI breakpoints): 0%

— US10238670B2, “9-aminomethyl minocycline compounds and methods of use thereof in urinary tract infection (UTI) treatment” (Paratek Pharmaceuticals, Inc., priority 2016, dated 2019)
